Patent US20180289702A1, “LPA LEVEL REDUCTION FOR TREATING CENTRAL NERVOUS SYSTEM DISORDERS” (priority 2015, published 2018)

Columns and labels:
[1] = system: neuronal hyperexcitability induced by Ketamine; experiment: ketamine-induced potentiation of evoked local field potentials (LFPs); type: cell-based, mice
Text: This aim was to unravel whether ATX-inhibition is able to revert cortical hyperexcitability and an altered E/I balance independent of the underlying cause. As previously described (Nosyreva E et al. 2013), ketamine application inhibits spontaneous neurotransmission and induces afterwards a potentiation of synaptic responses over time (FIG. 8A).

PRG-1+/− mice [2] = experiment: spontaneous postsynaptic currents (sPSC) with HA130; type: cell-based
PRG-1+/− mice [3] = experiment: double-pulse whisker stimulation model of sensory gating; type: in vivo; details: animals with monoallelic PRG-1-deficiency, ISI 500 ms
Text: In addition to analysis of spontaneous cortical network activity, the inventors assessed pre-attentive cortical information processing and measured sensory gating in a double-pulse whisker stimulation model (FIG. 4A). Local field potentials (recorded in the whisker-specific cortical barrel) in response to repetitive single-whisker stimulation elicited larger amplitudes to second stimulus in PRG-1^+/− when compared to wt (S1; S2; ISI=500 ms; FIG. 4B). […] These findings indicate that already loss of one functional allele of prg-1 as present in mutPRG-1 carriers, and thus a reduction of about 50% of functional PRG-1 at the synapse, causes an apparent E/I-imbalance in cortical networks and an altered sensory gating.

PRG-1 het mice = experiment: mEPSC recordings with HA-130; type: cell-based
PRG-1+/− mice [4] = experiment: in vivo multi-unit activity (MUA) recordings in S1BF cortex; details: 1 μM applied into the cortex of living PRG-1+/− mice
Text: In order to characterize the role of PRG-1 in cortical networks, the inventors then assessed expression of PRG-1 in the cerebral cortex and found strong expression in layer IV of the mouse somatosensory barrel field cortex (FIG. 3A) which was restricted to glutamatergic neurons. […] To understand implications of such a reduced synaptic PRG-1 function in intracortical information processing, the inventors performed multi-channel extracellular recordings in the S1BF cortex of wt and PRG-1^+/- mice in vivo (FIG. 3D). […] This finding points to a change in the cellular E/I balance towards excitation within cortical microcircuitries which has been related to severe behavioral deficits (Yizhar et al., 2011).

O=C1S/C(=C\c2ccc(OCc3cccc(B(O)O)c3)cc2)C(=O)N1Cc1ccc(F)cc1 [HA130, (Z)-3-((4-((3-(4-Fluorobenzyl)-2,4-dioxo-1,3-thiazolan-5-yliden)-methyl)phenoxy)methyl)benzeneboronic acid]
ketamine-induced potentiation (evoked LFPs) ([1]; 10 μM during ketamine wash out / potentiation phase): significantly decreased
ketamine-induced potentiation, input-output curves ([1]; after HA-130 treatment): reverted to baseline values
spontaneous postsynaptic currents (sPSC) (PRG-1+/− mice [2]; 1 μM): significant decrease
spontaneous postsynaptic currents (sPSC) (PRG-1+/− mice [2]; 10 μM): significant decrease
S2/S1-ratio (PRG-1+/− mice [3]): reduced
sensory gating (PRG-1+/− mice [3]): significantly restored
mEPSCs (spontaneous glutamatergic release at presynaptic terminals) (PRG-1 het mice; 10 μM (FIG. 12B), genotype not stated in the panel legend): decreased
mEPSCs (PRG-1 het mice; 10 μM, PRG-1 het mice (FIG. 12A)): decreased
number of multi-unit activity (MUA) bursts (PRG-1+/− mice [4]): significantly decreased
